Test: xn = mol fraction of the nth substance listed
Conditions: 101 kPa, Liquid, Vibrating tube method

CNCCCN [N-methyl-1,3-diaminopropane] + CN(CCO)CCO
mass density [kg/m3]
Conditions	x1 = 0.1001	x1 = 0.2003	x1 = 0.2999	x1 = 0.3997	x1 = 0.5	x1 = 0.5999	x1 = 0.7001	x1 = 0.8002	x1 = 0.9	x1 = 1
293.15 K	1026.93	1012.7	997.588	981.393	964.134	944.646	923.928	900.759	876.717	851.605
303.15 K	1019.31	1005.01	989.787	973.417	956.077	936.426	915.36	892.077	868.035	842.69
313.15 K	1011.66	997.273	981.94	965.391	947.946	928.152	907.016	883.714	859.287	833.715
323.15 K	1003.95	989.479	974.031	957.394	939.738	919.85	898.494	874.972	850.467	824.673
333.15 K	996.181	981.607	966.033	949.272	931.432	911.414	889.941	866.238	841.566	815.559
343.15 K	988.342	973.656	957.953	941.042	923.056	902.895	881.277	857.422	832.576	806.37
353.15 K	980.415	965.631	949.783	932.732	914.593	894.29	872.517	848.523	823.509	797.093
363.15 K	972.409	957.499	941.523	924.324	906.038	885.584	863.668	839.559	814.342	787.723

CNCCCN [N-methyl-1,3-diaminopropane] + CCN(CC)CCO
mass density [kg/m3]
Conditions	x1 = 0.0999	x1 = 0.2	x1 = 0.3001	x1 = 0.3997	x1 = 0.5	x1 = 0.5998	x1 = 0.7001	x1 = 0.8	x1 = 0.8996	x1 = 1
283.15 K	892.458	890.44	888.023	885.377	882.338	878.902	874.969	870.601	866.062	860.459
293.15 K	883.574	881.665	879.317	876.712	873.685	870.252	866.283	861.885	857.283	851.605
303.15 K	874.574	872.785	870.463	867.945	864.94	861.519	857.522	853.099	848.439	842.69
313.15 K	865.456	863.792	861.601	859.082	856.105	852.691	848.689	844.237	839.53	833.715
323.15 K	856.219	854.692	852.583	850.12	847.171	843.77	839.765	835.289	830.547	824.673
333.15 K	846.874	845.474	843.452	841.042	838.132	834.751	830.75	826.265	821.487	815.559
343.15 K	837.416	836.147	834.206	831.853	828.978	825.629	821.629	817.142	812.342	806.37
353.15 K	827.843	826.695	824.829	822.533	819.712	816.396	812.413	807.931	803.118	797.093
363.15 K	818.122	817.116	815.306	813.074	810.325	807.063	803.095	798.611	793.772	787.723
